According to BindingDB's records for patent US20240335442 (Eurofarma, 2024):
pIC50: −log10 of the molar value.

Tests used:
[1] = molecular target: Sodium channel protein type 10 subunit alpha (Homo sapiens, UniProt Q9Y5Y9); assay: In Vitro Assay (Protocol 2)
Method: (§1) Compounds of Formula (I), were diluted in eight concentrations in the extracellular solution composed of physiological saline, buffered with HEPES (mM): NaCl, 137; KCl, 4; CaCl2, 3.8; MgCl2, 1; HEPES, 10; Glucose, 10; pH 7.4. […], 50; CsF, 90; MgCl2, 5; EGTA, 5; HEPES, 10; pH 7.2. The duration of exposure of each compound with the cells expressing Nav 1.7 or Nav 1.8 was at least five minutes and the assays were performed at room temperature.The measurements of the sodium currents of Nav 1.8 and Nav 1.7 were obtained using the voltage protocols described below: A holding voltage of-100 mV was established followed by an inactivation voltage step at −40 mV for 8 seconds, followed by a −100 mV step for 20 ms, followed by a 20 ms step for 10 mV for Nav 1.8 or 0 mV for Nav 1.7 (TP1A) before returning to the holding voltage of-100 mV. Protocols were repeated at a frequency of 0.05 Hz and current amplitude was quantified over the TP1A phase log.

[2] = molecular target: Sodium channel protein type 9 subunit alpha (Homo sapiens, UniProt Q15858); assay: In Vitro Assay (Protocol 2)
Chain of Sodium channel protein type 9 subunit alpha (Q15858 whole entry): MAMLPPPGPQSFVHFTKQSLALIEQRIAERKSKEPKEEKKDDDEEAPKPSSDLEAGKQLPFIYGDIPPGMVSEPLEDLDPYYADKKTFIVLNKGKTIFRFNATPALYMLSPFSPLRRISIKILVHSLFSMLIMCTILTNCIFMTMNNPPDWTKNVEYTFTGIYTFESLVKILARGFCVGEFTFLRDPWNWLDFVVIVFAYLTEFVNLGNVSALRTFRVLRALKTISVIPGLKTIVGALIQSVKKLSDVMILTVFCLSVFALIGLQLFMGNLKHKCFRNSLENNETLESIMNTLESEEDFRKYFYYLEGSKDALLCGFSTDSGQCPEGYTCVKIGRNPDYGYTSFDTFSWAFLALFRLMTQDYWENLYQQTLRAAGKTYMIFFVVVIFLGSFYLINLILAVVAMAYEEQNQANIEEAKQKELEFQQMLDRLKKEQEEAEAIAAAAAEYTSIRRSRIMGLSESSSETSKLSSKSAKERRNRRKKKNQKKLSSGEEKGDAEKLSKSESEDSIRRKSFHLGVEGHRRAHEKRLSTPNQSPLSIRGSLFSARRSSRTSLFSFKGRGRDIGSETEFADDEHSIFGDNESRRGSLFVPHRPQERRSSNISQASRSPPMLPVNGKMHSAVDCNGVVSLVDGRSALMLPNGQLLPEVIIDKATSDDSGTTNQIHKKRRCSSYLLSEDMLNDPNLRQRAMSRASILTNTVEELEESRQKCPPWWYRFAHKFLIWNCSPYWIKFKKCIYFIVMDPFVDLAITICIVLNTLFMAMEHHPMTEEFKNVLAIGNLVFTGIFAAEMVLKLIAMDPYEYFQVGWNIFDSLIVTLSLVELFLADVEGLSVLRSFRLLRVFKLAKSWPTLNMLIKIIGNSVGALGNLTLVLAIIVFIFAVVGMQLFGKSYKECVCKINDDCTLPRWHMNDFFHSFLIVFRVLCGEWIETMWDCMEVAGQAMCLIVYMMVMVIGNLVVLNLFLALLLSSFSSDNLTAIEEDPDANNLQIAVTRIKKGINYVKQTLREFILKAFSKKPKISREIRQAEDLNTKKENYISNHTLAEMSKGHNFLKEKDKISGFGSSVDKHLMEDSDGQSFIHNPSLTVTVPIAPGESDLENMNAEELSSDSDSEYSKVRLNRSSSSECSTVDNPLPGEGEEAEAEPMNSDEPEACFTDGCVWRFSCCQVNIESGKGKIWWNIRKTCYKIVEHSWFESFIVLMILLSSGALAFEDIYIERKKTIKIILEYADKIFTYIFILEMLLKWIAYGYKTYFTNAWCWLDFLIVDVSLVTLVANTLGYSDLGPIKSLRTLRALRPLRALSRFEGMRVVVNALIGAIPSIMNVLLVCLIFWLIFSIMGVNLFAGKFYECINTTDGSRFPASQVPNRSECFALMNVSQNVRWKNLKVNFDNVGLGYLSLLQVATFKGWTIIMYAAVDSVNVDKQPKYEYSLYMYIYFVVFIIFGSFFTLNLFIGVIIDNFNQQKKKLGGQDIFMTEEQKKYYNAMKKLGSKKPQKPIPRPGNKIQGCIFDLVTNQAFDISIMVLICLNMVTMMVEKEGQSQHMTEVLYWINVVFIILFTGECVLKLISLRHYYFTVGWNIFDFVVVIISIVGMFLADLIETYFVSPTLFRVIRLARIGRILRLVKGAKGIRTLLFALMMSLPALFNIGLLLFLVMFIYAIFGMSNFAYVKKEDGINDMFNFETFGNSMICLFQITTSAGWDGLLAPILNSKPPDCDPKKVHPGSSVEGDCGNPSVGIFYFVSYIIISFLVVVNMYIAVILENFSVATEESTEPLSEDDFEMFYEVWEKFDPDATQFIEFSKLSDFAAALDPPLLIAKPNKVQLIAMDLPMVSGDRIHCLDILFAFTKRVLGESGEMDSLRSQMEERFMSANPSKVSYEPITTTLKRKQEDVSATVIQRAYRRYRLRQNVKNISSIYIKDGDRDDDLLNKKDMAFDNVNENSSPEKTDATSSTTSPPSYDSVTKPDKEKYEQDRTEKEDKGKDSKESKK
Method: as §1

Chain of Sodium channel protein type 10 subunit alpha (Q9Y5Y9 whole entry): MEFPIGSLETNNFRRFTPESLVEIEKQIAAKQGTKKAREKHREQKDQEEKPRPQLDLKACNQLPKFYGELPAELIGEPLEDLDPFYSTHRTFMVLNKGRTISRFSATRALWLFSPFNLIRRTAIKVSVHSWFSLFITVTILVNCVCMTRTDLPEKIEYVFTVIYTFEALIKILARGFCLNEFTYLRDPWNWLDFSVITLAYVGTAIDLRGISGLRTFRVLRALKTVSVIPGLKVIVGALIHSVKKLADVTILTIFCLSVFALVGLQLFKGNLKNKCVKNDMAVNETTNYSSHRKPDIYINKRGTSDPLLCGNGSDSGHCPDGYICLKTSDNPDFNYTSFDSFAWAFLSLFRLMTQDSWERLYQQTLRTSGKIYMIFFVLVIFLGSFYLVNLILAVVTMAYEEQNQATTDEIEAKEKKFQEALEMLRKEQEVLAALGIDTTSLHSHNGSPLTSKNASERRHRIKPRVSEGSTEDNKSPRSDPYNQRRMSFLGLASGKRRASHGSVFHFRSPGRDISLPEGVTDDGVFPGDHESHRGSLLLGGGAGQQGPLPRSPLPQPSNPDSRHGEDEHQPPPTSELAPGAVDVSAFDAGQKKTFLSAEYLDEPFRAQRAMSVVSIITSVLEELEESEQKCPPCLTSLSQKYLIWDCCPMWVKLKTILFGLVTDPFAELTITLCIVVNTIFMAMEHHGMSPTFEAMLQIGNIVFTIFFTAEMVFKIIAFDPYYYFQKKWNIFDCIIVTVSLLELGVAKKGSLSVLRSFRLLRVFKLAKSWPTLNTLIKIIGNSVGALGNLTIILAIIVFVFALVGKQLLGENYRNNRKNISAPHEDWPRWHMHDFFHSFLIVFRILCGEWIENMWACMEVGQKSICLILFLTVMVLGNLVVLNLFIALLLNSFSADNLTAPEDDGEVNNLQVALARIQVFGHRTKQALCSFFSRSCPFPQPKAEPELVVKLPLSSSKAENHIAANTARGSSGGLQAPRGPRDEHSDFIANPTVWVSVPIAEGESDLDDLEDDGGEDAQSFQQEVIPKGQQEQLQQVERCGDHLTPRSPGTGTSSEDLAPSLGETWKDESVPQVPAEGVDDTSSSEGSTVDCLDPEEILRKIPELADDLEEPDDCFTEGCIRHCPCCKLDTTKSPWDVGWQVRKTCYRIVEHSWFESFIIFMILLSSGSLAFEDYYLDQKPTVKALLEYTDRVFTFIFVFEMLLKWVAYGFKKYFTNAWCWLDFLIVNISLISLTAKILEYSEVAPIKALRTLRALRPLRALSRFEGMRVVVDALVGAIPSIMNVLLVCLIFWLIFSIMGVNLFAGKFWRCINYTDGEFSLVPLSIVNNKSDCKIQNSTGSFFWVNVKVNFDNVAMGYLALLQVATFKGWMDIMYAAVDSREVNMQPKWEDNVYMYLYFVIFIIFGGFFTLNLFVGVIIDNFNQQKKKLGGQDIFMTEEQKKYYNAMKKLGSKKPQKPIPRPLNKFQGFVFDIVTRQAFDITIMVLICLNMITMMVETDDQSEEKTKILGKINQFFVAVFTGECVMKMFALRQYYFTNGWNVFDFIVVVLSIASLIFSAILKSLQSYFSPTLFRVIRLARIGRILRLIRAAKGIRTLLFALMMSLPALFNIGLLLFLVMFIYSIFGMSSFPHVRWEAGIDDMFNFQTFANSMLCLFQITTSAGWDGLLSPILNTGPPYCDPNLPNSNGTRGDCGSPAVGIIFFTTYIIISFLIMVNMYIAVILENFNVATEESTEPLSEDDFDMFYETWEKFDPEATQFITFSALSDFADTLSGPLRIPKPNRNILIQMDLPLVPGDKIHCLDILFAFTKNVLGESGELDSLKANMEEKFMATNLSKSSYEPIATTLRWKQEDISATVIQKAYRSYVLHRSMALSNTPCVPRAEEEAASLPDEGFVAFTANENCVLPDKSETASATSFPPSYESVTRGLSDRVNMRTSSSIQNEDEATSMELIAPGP

Row | Compound | pIC50 [1] | pIC50 [2]
1 | CCOc1ccccc1/C=N/NC(=O)c1cncc(-c2ccc(OC)cc2)n1 [US20240335442, Compound 43] | 6.73 | 5.41
2 | CCCOc1ccccc1/C=N/NC(=O)c1cncc(-c2ccc(OC)cc2)n1 [US20240335442, Compound 44] | 6.79 | 5.44
3 | CCCOc1cc(/C=N/NC(=O)c2cncc(-c3ccc(OC)cc3)n2)cc(OCCC)c1 [US20240335442, Compound 68] | 6.54 | 5.74
4 | COc1ccc(-c2cncc(C(=O)N/N=C/c3cc(OC(C)C)cc(OC(C)C)c3)n2)cc1 [US20240335442, Compound 69] | 6.29 | 5.84
5 | COc1ccc(-c2cncc(C(=O)N/N=C/c3cc(F)cc(F)c3)n2)cc1 [US20240335442, Compound 70] | 6.01 | 5.00
6 | COc1ccc(-c2cncc(C(=O)N/N=C/c3cc(C)cc(C)c3)n2)cc1 [US20240335442, Compound 75] | 7.29 | 6.33
7 | COc1ccc(-c2cncc(C(=O)N/N=C/c3cc(OC)cc(OC)c3OC)n2)cc1 [US20240335442, Compound 80] | 6.45 | 5.83
8 | COc1ccc(-c2cncc(C(=O)N/N=C/c3cc(OC)c(OC)c(OC)c3)n2)cc1 [US20240335442, Compound 81] | < 6.00 | < 5.00
9 | COc1ccc(Oc2nccnc2C(=O)N/N=C/c2cc(OC)cc(OC)c2)cc1 [US20240335442, Compound 129] | < 6.00 | < 5.00
10 | CC(C)Oc1ccc(-c2cncc(C(=O)N/N=C/C3CCC(F)(F)CC3)n2)cc1 [US20240335442, Compound 176] | 6.34 | 6.40
11 | COc1ccc(-c2cncc(C(=O)N/N=C/C3=C(C)CCCC3)n2)cc1 [US20240335442, Compound 197] | 6.79 | 6.11
12 | CCOc1ccc(-c2cncc(C(=O)N/N=C/C3=C(C)CCCC3)n2)cc1 [US20240335442, Compound 198] | 7.62 | 6.44
13 | CCOc1ccc(-c2cncc(C(=O)N/N=C/C3=C(C)CCCCC3)n2)cc1 [US20240335442, Compound 201] | 7.15 | 6.37
14 | CCOc1ccc(-c2nc(C(=O)N/N=C/c3cc(OC)cc(OC)c3)cnc2C)cc1 [US20240335442, Compound 207] | 6.33 | < 5.00
15 | CCOc1ccc(-c2nc(C(=O)N/N=C/c3cc(OC)cc(OC)c3)cnc2CC)cc1 [US20240335442, Compound 208] | 6.37 | 5.72
16 | CCOc1ccc(-c2nc(C(=O)N/N=C/c3cc(OC)cc(OC)c3)cnc2OC)cc1 [US20240335442, Compound 211] | < 6.00 | < 5.00
17 | CCOc1ccc(-c2cncc(C(=O)N/N=C/c3cc(OC)cc(C(C)O)c3)n2)cc1 (centres undefined) [US20240335442, Compound 215] | 6.94 | 5.72
